Assay [1] concerns the target LCK protein (Homo sapiens (Human), UniProt P06239). Nature of the assay: LCK Inhibition Assay. Format: biochemical. Here is the method: Test compound was dissolved in DMSO at 10 mM. 45 uL of compound was transfer into a 384-well compound source plate (LABCYTE cat #P-05525) and serially diluted at 1:3 ratio to create a 11-point dilutions. The same volume of DMSO was adopted as high control. 20 nL of these compounds DMSO dilutes were dispensed into a new 384-well assay plate by Echo 550. LCK protein (0.50 nM, Cama Biosciences, cat #08-170), florescent labeled substrate FLPeptide4 (2 μM, PerkinElmer, cat #760348) was prepared in kinase assay buffer (50 mM HEPES (pH 7.5), 10 mM MgCl2, 0.01% Brij-35, 2 mM DTT and 0.005 mg/ml BSA). 15 uL of kinase assay buffer containing LCK protein and substrate was transferred to assay plate and incubate at RT for 30 minutes. Kinase assay buffer supplemented with substrate peptides was employed as low control to monitor the background. 400 μM ATP was prepared in kinase assay buffer and 5 μL of ATP solution was added to each well to start the reaction. The assay plate was incubated at 25° C. for 90 minutes and the reaction was stopped by adding 40 μL of 0.5 M EDTA.
(§1) Phosphorylated fluorescent-tagged peptides were differentiated from non-phosphorylated peptides by separating using Caliper EZ Reader II and the detection was directly converted to conversion ratio.
(§2) For estimation of IC50, the % substrate conversion values are transformed to % Inhibition Ratio by applying the following equation: […]

Assay [2] deals with CSK protein (Homo sapiens (Human), UniProt P41240). The assay is described as follows: CSK Inhibition Assay. Format: biochemical. The method, then:
Test compound was dissolved in DMSO at 10 mM. 45 uL of compound was transferred into a 384-well compound source plate (LABCYTE cat #P-05525) and serially diluted at 1:3 ratio to create a 11-point dilutions. The same volume of DMSO was adopted as high control. 20 nL of these compounds DMSO dilutes were dispensed into a new 384-well assay plate by Echo 550. […] 15 uL of kinase assay buffer containing CSK protein and substrate was transferred to assay plate and incubated at RT for 30 minutes. Kinase assay buffer supplemented with substrate peptides was employed as low control to monitor the background. 4 μM of ATP was prepared in kinase assay buffer and 5 μL of ATP solution was added to each well to start the reaction. The assay plate was incubated at 25° C. for 90 minutes and the reaction was stopped by adding 40 μL of 0.5 M EDTA.
as §1, §2

Each structure is given as a SMILES string.

Chain of CSK protein (P41240 whole entry): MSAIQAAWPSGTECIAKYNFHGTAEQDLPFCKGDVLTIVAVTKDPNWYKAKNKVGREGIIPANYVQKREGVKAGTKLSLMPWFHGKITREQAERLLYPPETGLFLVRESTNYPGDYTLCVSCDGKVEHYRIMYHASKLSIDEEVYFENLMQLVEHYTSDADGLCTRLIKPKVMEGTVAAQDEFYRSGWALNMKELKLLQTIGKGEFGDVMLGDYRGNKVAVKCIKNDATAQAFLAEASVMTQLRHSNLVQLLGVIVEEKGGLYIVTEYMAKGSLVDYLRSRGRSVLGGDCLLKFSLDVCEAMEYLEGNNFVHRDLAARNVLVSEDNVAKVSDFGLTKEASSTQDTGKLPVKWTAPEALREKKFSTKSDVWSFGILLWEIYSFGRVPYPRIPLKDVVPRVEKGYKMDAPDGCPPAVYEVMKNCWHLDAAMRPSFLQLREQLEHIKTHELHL
Chain of LCK protein (P06239 whole entry): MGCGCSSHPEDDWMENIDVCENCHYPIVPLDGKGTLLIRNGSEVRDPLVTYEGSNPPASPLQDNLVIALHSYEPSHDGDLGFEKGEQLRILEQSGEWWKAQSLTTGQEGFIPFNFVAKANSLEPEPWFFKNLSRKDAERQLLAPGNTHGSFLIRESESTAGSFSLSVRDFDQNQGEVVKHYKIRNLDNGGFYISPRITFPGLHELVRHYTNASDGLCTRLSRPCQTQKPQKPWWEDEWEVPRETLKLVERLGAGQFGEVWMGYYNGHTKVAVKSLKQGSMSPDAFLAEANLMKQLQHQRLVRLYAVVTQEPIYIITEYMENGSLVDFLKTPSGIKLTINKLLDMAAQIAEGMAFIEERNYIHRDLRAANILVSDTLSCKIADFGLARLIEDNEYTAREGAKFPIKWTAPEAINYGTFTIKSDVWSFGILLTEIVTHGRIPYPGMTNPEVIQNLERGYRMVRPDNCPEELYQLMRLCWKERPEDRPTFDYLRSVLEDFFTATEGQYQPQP

As usually defined, the IC50 is the midpoint of a concentration-inhibition curve. High values mean weaker potency, low ones greater potency. With `Cc1cncc(-c2nc(-c3cccc(NS(=O)(=O)c4c(F)cccc4F)c3F)c(-c3ccnc(N)n3)s2)c1` [Compound 47], the results for the IC50 in assay [1] and in assay [2] were 100 to 1000 nM and 29.4 nM, respectively.

Take `CNc1nccc(-c2sc(-c3ccccc3)nc2-c2cccc(NS(=O)(=O)c3c(F)ccc(C)c3F)c2F)n1` [Compound 51]: the IC50 was above 1000 nM in assay [1] and 33.1 nM in assay [2].

As to `Cc1ccc(F)c(S(=O)(=O)Nc2cccc(-c3nc(-c4cc(F)ccn4)sc3-c3ccnc(N)n3)c2F)c1F` [Compound 52], the half-inhibitory concentration (IC50) was above 1000 nM in assay [1] and 19.5 nM in assay [2].

Take `CNc1nccc(-c2sc(-c3cncc(F)c3)nc2-c2cccc(NS(=O)(=O)c3c(F)ccc(C)c3F)c2F)n1` [Compound 53]: the IC50 in assay [1] is above 1000 nM; in assay [2] it was 15.6 nM.

As for `Cc1ccc(F)c(S(=O)(=O)Nc2cccc(-c3nc(-c4ccc(F)cn4)sc3-c3ccnc(N)n3)c2F)c1F` [Compound 54], the figures for the IC50 in assay [1] and in assay [2] were above 1000 nM and 92.8 nM, respectively.

In the case of `CNc1nccc(-c2sc(-c3ccc(F)cn3)nc2-c2cccc(NS(=O)(=O)c3c(F)ccc(C)c3F)c2F)n1` [Compound 55], the IC50 in assay [1] is above 1000 nM; in assay [2], 30.3 nM.

Regarding `CCNc1nccc(-c2sc(-c3ccc(F)cn3)nc2-c2cccc(NS(=O)(=O)c3c(F)ccc(C)c3F)c2F)n1` [Compound 56], the IC50 in assay [1] was above 1000 nM; in assay [2], 47 nM.

Regarding `CNc1nccc(-c2sc(-c3ccc(F)cn3)nc2-c2cccc(NS(=O)(=O)c3c(F)ccc(Cl)c3F)c2F)n1` [Compound 58], the half-maximal inhibitory concentration (IC50) is above 1000 nM in assay [1] and 31.5 nM in assay [2].

In the case of `COC(=O)NCCNc1nccc(-c2sc(-c3ccccc3)nc2-c2cccc(NS(=O)(=O)c3c(F)cccc3F)c2F)n1` [Compound 59], the concentration for half-maximal inhibition (IC50) in assay [1] was above 1000 nM; in assay [2] it was 68.4 nM.

On to `COC(=O)N[C@H](C)CNc1nccc(-c2sc(-c3ccccc3)nc2-c2cccc(NS(=O)(=O)c3c(F)cccc3F)c2F)n1` [Compound 60], for which the half-inhibitory concentration (IC50) in assay [1] was above 1000 nM; in assay [2], 120 nM.

Take `Cc1ccc(Cl)c(S(=O)(=O)Nc2cccc(-c3nc(-c4cncc(F)c4)sc3-c3ccnc(N)n3)c2F)c1Cl` [Compound 61]: the IC50 in assay [1] is above 1000 nM; in assay [2] it was 12.6 nM.

For `Nc1nccc(-c2sc(-c3cncc(F)c3)nc2-c2cccc(NS(=O)(=O)c3c(Cl)cccc3Cl)c2F)n1` [Compound 62], the values for the half-maximal inhibitory concentration (IC50) in assay [1] and in assay [2] were above 1000 nM and 9.4 nM, respectively.

Turning to `CNc1nccc(-c2sc(-c3cncnc3)nc2-c2cccc(NS(=O)(=O)c3c(F)cccc3F)c2F)n1` [Compound 63], the figures for the IC50 in assay [1] and in assay [2] were above 1000 nM and 20.6 nM, respectively.

Regarding `CNc1nccc(-c2sc(-c3cncc(F)c3)nc2-c2cccc(NS(=O)(=O)c3c(F)cc(OC)cc3F)c2F)n1` [Compound 64], the results for the IC50 in assay [1] and in assay [2] were above 1000 nM and 18.3 nM, respectively.

Consider `CNc1nccc(-c2sc(-c3ccc(C)nn3)nc2-c2cccc(NS(=O)(=O)c3c(F)ccc(C)c3F)c2F)n1` [Compound 65], for which the IC50 was above 1000 nM in assay [1] and 14.9 nM in assay [2].

Consider `O=S(=O)(Nc1cccc(-c2nc(-c3cncc(F)c3)sc2-c2ccnc(NCCO)n2)c1F)c1c(F)cccc1F` [Compound 66], for which the IC50 was above 1000 nM in assay [1] and 19.6 nM in assay [2].

On to `NCCNc1nccc(-c2sc(-c3cncc(F)c3)nc2-c2cccc(NS(=O)(=O)c3c(F)cccc3F)c2F)n1` [Compound 67], for which the IC50 in assay [1] is above 1000 nM; in assay [2], 617 nM.

As for `O=S(=O)(Nc1cccc(-c2nc(-c3cncc(F)c3)sc2-c2ccnc(NC3CC3)n2)c1F)c1c(F)cccc1F` [Compound 68], the figures for the concentration for half-maximal inhibition (IC50) in assay [1] and in assay [2] were above 1000 nM and 16.2 nM, respectively.

As to `CNc1nccc(-c2sc(-c3cnc(C)nc3)nc2-c2cccc(NS(=O)(=O)c3c(F)ccc(C)c3F)c2F)n1` [Compound 69], the half-maximal inhibitory concentration (IC50) in assay [1] was above 1000 nM; in assay [2], 13.4 nM.

As for `CNc1nccc(-c2sc(-c3ccc(F)cc3)nc2-c2cccc(NS(=O)(=O)c3c(F)ccc(C)c3F)c2F)n1` [Compound 70], the figures for the IC50 in assay [1] and in assay [2] were above 1000 nM and 92.3 nM, respectively.

As for `CNc1nccc(-c2sc(-c3cccc(F)c3)nc2-c2cccc(NS(=O)(=O)c3c(F)ccc(C)c3F)c2F)n1` [Compound 71], the IC50 in assay [1] is above 1000 nM; in assay [2], 41.8 nM.

With `CNc1nccc(-c2sc(-c3cncc(F)c3)nc2-c2cc(OC)cc(NS(=O)(=O)c3c(F)cccc3F)c2F)n1` [Compound 72], the IC50 in assay [1] is above 1000 nM; in assay [2], 26.1 nM.

In the case of `CNc1nccc(-c2sc(-c3cncnc3)nc2-c2cccc(NS(=O)(=O)c3c(F)ccc(C)c3F)c2F)n1` [Compound 73], the IC50 was above 1000 nM in assay [1] and 14.8 nM in assay [2].

As for `CNc1nccc(-c2sc(-c3cncc(F)c3)nc2-c2cccc(NS(=O)(=O)c3c(F)cccc3F)c2F)n1` [Compound 74], the results for the half-inhibitory concentration (IC50) in assay [1] and in assay [2] were above 1000 nM and 8.8 nM, respectively.

In the case of `CNc1nccc(-c2sc(-c3cncc(C(F)(F)F)c3)nc2-c2cccc(NS(=O)(=O)c3c(F)cccc3F)c2F)n1` [Compound 75], the IC50 is above 1000 nM in assay [1] and 73.9 nM in assay [2].

`CNc1nccc(-c2sc(-c3cnccn3)nc2-c2cccc(NS(=O)(=O)c3c(F)cccc3F)c2F)n1` [Compound 76]: the IC50 in assay [1] was above 1000 nM; in assay [2], 19.1 nM.

`CNc1nccc(-c2sc(-c3ccc(F)cn3)nc2-c2cccc(NS(=O)(=O)c3c(F)cc(F)cc3F)c2F)n1` [Compound 77]: the IC50 was above 1000 nM in assay [1] and 85.5 nM in assay [2].

With `CC(C)Nc1nccc(-c2sc(-c3cncc(F)c3)nc2-c2cccc(NS(=O)(=O)c3c(F)cccc3F)c2F)n1` [Compound 78], the IC50 in assay [1] is above 1000 nM; in assay [2], 11.8 nM.

Regarding `O=S(=O)(Nc1cccc(-c2nc(-c3cncc(F)c3)sc2-c2ccnc(NCCO)n2)c1F)c1c(Cl)cccc1Cl` [Compound 79], the IC50 in assay [1] is above 1000 nM; in assay [2] it was 7.6 nM.

As for `O=S(=O)(Nc1cccc(-c2nc(-c3cncc(F)c3)sc2-c2ccnc(NC3CC3)n2)c1F)c1c(Cl)cccc1Cl` [Compound 80], the results for the IC50 in assay [1] and in assay [2] were above 1000 nM and 6 nM, respectively.

As to `Nc1nccc(-c2sc(-c3ccccc3)nc2-c2cccc(NS(=O)(=O)c3ccc4[nH]ncc4c3)c2F)n1` [Compound 83], the IC50 in assay [1] was above 1000 nM; in assay [2] it was 842 nM.

As to `Nc1nccc(-c2c(-c3cccc(NS(=O)(=O)c4c(F)cccc4F)c3F)nc(-c3ccccc3)n2O)n1` [Compound 84], the IC50 is above 1000 nM in assay [1] and 133 nM in assay [2].

With `Nc1nccc(-c2[nH]c(-c3ccccc3)nc2-c2cccc(NS(=O)(=O)c3c(F)cccc3F)c2F)n1` [Compound 85], the IC50 in assay [1] was 100 to 1000 nM; in assay [2] it was 33.2 nM.

Regarding `CCc1ccn2c(-c3ccnc(N)n3)c(-c3cccc(NS(=O)(=O)c4c(F)cccc4F)c3F)nc2c1` [Compound 92], the IC50 is above 1000 nM in assay [1] and 89.2 nM in assay [2].

Consider `Cc1cccn2c(-c3ccnc(N)n3)c(-c3cccc(NS(=O)(=O)c4c(F)cccc4F)c3F)nc12` [Compound 93], for which the values for the IC50 in assay [1] and in assay [2] were above 1000 nM and 41.8 nM, respectively.

Regarding `NC(=O)c1ccn2c(-c3ccnc(N)n3)c(-c3cccc(NS(=O)(=O)c4c(F)cccc4F)c3F)nc2c1` [Compound 94], the IC50 in assay [1] is above 1000 nM; in assay [2] it was 98.6 nM.

With `CN(C)c1ccn2c(-c3ccnc(N)n3)c(-c3cccc(NS(=O)(=O)c4c(F)cccc4F)c3F)nc2c1` [Compound 95], the IC50 in assay [1] was above 1000 nM; in assay [2] it was 71.6 nM.

For the molecule `Nc1nccc(-c2c(-c3cccc(NS(=O)(=O)c4c(F)cccc4F)c3F)nc3cc(C(=O)O)ccn23)n1` [Compound 96], the IC50 was above 1000 nM in assay [1] and 127 nM in assay [2].

Consider `CCOc1ccn2c(-c3ccnc(N)n3)c(-c3cccc(NS(=O)(=O)c4c(F)cccc4F)c3F)nc2c1` [Compound 97], for which the values for the IC50 in assay [1] and in assay [2] were above 1000 nM and 98.2 nM, respectively.

With `CNc1nccc(-c2c(-c3cccc(NS(=O)(=O)c4c(F)cccc4F)c3F)nc3cc(OC)ccn23)n1` [Compound 98], the results for the IC50 in assay [1] and in assay [2] were above 1000 nM and 78.3 nM, respectively.

Regarding `COc1cc2nc(-c3cccc(NS(=O)(=O)c4c(F)cccc4F)c3F)c(-c3ccnc(N)n3)n2cc1Cl` [Compound 100], the IC50 was above 1000 nM in assay [1] and 137 nM in assay [2].

With `N#Cc1ccn2c(-c3ccnc(N)n3)c(-c3cccc(NS(=O)(=O)c4c(F)cccc4F)c3F)nc2c1` [Compound 101], the IC50 in assay [1] was above 1000 nM; in assay [2], 436 nM.

Consider `CNc1nccc(-c2c(-c3cccc(NS(=O)(=O)c4c(F)ccc(C)c4F)c3F)nc3c(F)cccn23)n1` [Compound 102], for which the IC50 in assay [1] is above 1000 nM; in assay [2], 96.5 nM.
